The source of these data is paper PMC7357040, “Strategy for Designing Selective Lysosomal Acid α-Glucosidase Inhibitors: Binding Orientation and Influence on Selectivity” (Molecules, 2020).

Assay [1] has as its target T1, lysosomal acid α-glucosidase (GAA) (Homo sapiens, UniProt P10253).
T1 construct: purchased Genzyme
Kind of assay: Lysosomal acid α-glucosidase (GAA) inhibition assay, Myozyme as enzyme source, 4-methylumbelliferyl-α-D-glucopyranoside substrate. Format: biochemical. To be noted: for IC50: Myozyme, pH 6.8, 37 °C 30 min; for Selectivity Index ER α-Glcase II/GAA: ratio of IC50 ER α-glucosidase II / IC50 GAA. Here is the method: (§1) The inhibitory activity toward lysosomal acid α-glucosidase (GAA) was measured with Myozyme (Genzyme; Boston, MA, USA) as the enzyme source, and 4-methylumbelliferyl-α-D-glucopyranoside (Sigma-Aldrich Co.; St. Louis, Mo, USA) as substrate. The reaction mixture consisted 100 mM McIlvaine buffer (pH 6.8), 0.25% sodium taurocholate and 0.1% Triton X-100 (Nacalai Tesque Inc.; Kyoto, Japan), and the appropriate amount of enzyme. The reaction mixture was pre-incubated at 0 °C for 45 min, and the reaction was started by the using 4 mM substrate solution, followed by incubation at 37 °C for 30 min. The reaction was stopped by the addition of 1.6 mL of the solution of 400 mM Glycine-NaOH solution (pH 10.6). The released 4-methylumbelliferone was measured (excitation 362 nm, emission 450 nm) with a F-4500 fluorescence spectrophotometer (Hitachi, Tokyo, Japan). ER α-glucosidase II was prepared from the rat liver according to the method of Hino et al.. For ER α-glucosidase II activities, 4-nitrophenyl-α-D-glucopyranoside (Sigma-Aldrich Co.; St. Louis, MO, USA) was used as substrate. The reaction mixture contained phosphate buffer (pH 6.8), 0.25% sodium taurocholate, and the appropriate amount of enzyme. The reaction mixture was pre-incubated at 0 °C for 30 min, and the reaction was started by the using 4 mM substrate solution, followed by incubation at 37 °C for 30 min. The reaction was stopped by adding 0.4 mL of 400 mM Na2CO3. The released p-nitrophenol was measured spectrometrically at 400 nm.

The next assay concerns the target T2, ER α-glucosidase II (Rattus norvegicus, UniProt A0A8I6GFL3).
T2 construct: ER α-glucosidase II was prepared from the rat liver; from tissue; host or cells: rat liver
The assay can be described thus: ER α-glucosidase II inhibition assay, enzyme prepared from rat liver, 4-nitrophenyl-α-D-glucopyranoside substrate. The assay is classed as biochemical. The conditions noted are these: for IC50: rat liver enzyme, pH 6.8, 37 °C 30 min, read-out: IC50 ER α-Glcase II. On the procedure:
as §1

Assay [2] addresses T1, lysosomal acid α-glucosidase (GAA). The assay can be described thus: In vitro thermostability of GAA at 47 °C, remaining enzyme activity. Format: biochemical. The conditions noted are these: 10 µM compound, pH 6.8, incubation 60 min. Here is the method: GAA was incubated in 100 mM McIlvaine buffer (pH 6.8) containing 0.25% sodium taurocholate and 0.1% Triton X-100 for 0, 20, 40, and 60 min, and the remaining enzyme activity was determined with 4-methylumbelliferl-α-D-glucopyranoside as substrate. The enzyme activity was 83% lost within 60 min under incubation without test samples, while the incubation with α-1-C-heptyl-LAB effectively stabilized GAA. The enzyme activity remained over 94% even under the incubation for 60 min in the presence of 10 µM α-1-C-heptyl-LAB (Figure 8). […] In contrast, 10 µM α-1-C-ethyl-LAB could not sufficiently protect the enzyme activity (50% activity remained at 60 min).
GAA was incubated at 47 °C in 100 mM sodium citrate buffer (pH 6.8) containing 1 mg/mL of bovine serum albumin (BSA) at various incubation times with or without iminosugars. Each value represents the mean ± SEM (n = 3).
The enzyme GAA was incubated at 47 °C in 100 mM McIlvaine buffer (pH 6.8) containing 0.25% sodium taurocholate and 0.1% Triton X-100 for 0, 20, 40, and 60 min. After incubation, the remaining GAA activity was assayed immediately using 4 mM 4-methylumbelliferyl-α-D-glucopyranoside as substrate.

In assay [3] the target is lysosomal α-galactosidase A. Set-up: method as in PMID 15771446. The conditions noted are these: Figure 1; cited from earlier work.
For a further assay, the target named is Jack bean α-mannosidase. Set-up: method as in PMID 15771446. The conditions noted are these: Figure 1; cited from earlier work.

T2 sequence (A0A8I6GFL3 33-944): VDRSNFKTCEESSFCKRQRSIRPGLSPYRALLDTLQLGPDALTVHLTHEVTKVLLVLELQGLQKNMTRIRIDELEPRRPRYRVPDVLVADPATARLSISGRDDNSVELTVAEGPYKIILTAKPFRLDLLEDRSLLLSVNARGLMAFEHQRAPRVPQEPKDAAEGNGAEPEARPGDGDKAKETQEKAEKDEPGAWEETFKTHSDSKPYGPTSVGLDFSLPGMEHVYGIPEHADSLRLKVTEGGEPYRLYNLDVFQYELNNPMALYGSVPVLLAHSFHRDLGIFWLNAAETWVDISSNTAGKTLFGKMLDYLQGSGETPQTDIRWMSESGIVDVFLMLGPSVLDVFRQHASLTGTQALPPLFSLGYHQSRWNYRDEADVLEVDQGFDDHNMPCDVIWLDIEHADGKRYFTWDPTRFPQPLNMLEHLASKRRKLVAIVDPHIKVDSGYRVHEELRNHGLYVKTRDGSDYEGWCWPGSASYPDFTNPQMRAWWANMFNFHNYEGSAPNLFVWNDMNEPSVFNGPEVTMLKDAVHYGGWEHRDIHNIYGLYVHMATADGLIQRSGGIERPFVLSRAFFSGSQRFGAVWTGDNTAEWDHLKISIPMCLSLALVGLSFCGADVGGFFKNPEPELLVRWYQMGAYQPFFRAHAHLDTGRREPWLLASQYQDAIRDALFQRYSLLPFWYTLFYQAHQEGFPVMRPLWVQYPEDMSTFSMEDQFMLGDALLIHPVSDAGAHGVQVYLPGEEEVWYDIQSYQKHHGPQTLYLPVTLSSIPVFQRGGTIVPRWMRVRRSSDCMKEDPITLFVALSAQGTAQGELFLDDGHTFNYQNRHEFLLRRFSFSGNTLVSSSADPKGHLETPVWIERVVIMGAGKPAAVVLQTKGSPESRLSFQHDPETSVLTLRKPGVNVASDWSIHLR

As for `CCC[C@@H]1N[C@@H](CO)[C@H](O)[C@H]1O` [α-1-C-Propyl-LAB], in assay [1], 7400 ± 310 nM corresponded to half-maximal inhibition (IC50) and the “Selectivity Index ER α-Glcase II/GAA” value is on record as 55.8. In addition, the IC50 at ER α-glucosidase II turned out to be 413 ± 50 µM.
The matching figures for `CCCCCC[C@@H]1N[C@@H](CO)[C@H](O)[C@H]1O` [α-1-C-Hexyl-LAB]: 710 ± 29 nM, 140.8 and 100 ± 6.2 µM.
Take `OC[C@H]1NC[C@H](O)[C@@H](O)[C@@H]1O` [DNJ, 1,5-Dideoxy-1,5-imino-D-glucitol, reference compound]: on ER α-glucosidase II, the IC50 amounted to 8 ± 0.55 µM.
Consider `CC[C@@H]1N[C@@H](CO)[C@H](O)[C@H]1O` [α-1-C-Ethyl-LAB], for which, in assay [1], the IC50 was found to be 11000 ± 1100 nM and the “Selectivity Index ER α-Glcase II/GAA” value is recorded as 49.2. Also, the “Inhibition of GAA, fold lower than LAB” value in assay [1] (relative to LAB) came out at 21 fold. Besides, the IC50 on ER α-glucosidase II is 541 ± 26 µM. In addition, the “Inhibition of ER α-glucosidase II, fold weaker than LAB” value on ER α-glucosidase II (relative to LAB) turned out to be 193 fold. Moreover, in assay [2], the “GAA enzyme activity remained” value stood at 50%.
Regarding `OC[C@H]1NC[C@H](O)[C@@H](O)[C@H]1O` [DGJ, 1,5-dideoxy-1,5-imino-D-galactitol], the half-inhibitory concentration (IC50) in assay [3] was 70 nM.
Consider `CCCC[C@@H]1N[C@@H](CO)[C@H](O)[C@H]1O` [α-1-C-Butyl-LAB], for which, in assay [1], the 50% inhibitory concentration (IC50) was determined as 1600 ± 40 nM and the “Selectivity Index ER α-Glcase II/GAA” value was 142.5. Besides, the IC50 on ER α-glucosidase II amounted to 228 ± 13 µM.
Take `C[C@@H]1N[C@@H](CO)[C@H](O)[C@H]1O` [α-1-C-Methyl-LAB]: in assay [1], the 50% inhibitory concentration (IC50) worked out at 2000 ± 120 nM and the “Selectivity Index ER α-Glcase II/GAA” value was 13.0. Moreover, the concentration for half-maximal inhibition (IC50) at ER α-glucosidase II came out at 26 ± 2 µM.
`CCCCCCC[C@@H]1N[C@@H](CO)[C@H](O)[C@H]1O` [α-1-C-Heptyl-LAB, α-1-C-heptyl-1,4-dideoxy-1,4-imino-L-arabinitol]: the IC50 in assay [1] is 440 ± 44 nM; on ER α-glucosidase II, 74 ± 3.7 µM. In addition, the “Selectivity Index ER α-Glcase II/GAA” value in assay [1] is on record as 168.2. In addition, in assay [1] (relative to LAB), the “Selectivity index, fold better relative to the parent LAB” value is given as 31 fold. In assay [2], the “GAA enzyme activity remained” value is “over 94%”.
`OC[C@H]1NC[C@@H](O)[C@@H](O)[C@@H]1O` [DMJ, 1,5-dideoxy-1,5-imino-D-mannitol]: at Jack bean α-mannosidase, the IC50 is 774 µM.
With `OC[C@@H]1NC[C@H](O)[C@H]1O` [LAB, 1,4-Dideoxy-1,4-imino-L-arabinitol], the “Inhibition potency of GAA, times weaker than DNJ” value in assay [1] (relative to DNJ) was determined as 3.5 times. Moreover, the IC50 on ER α-glucosidase II is 2.8 ± 0.22 µM. Also, in assay [2], the “GAA enzyme activity remained” value is reported as 89%.
For the compound `CCCCC[C@@H]1N[C@@H](CO)[C@H](O)[C@H]1O` [α-1-C-Pentyl-LAB], in assay [1], the IC50 is 1100 ± 88 nM and the “Selectivity Index ER α-Glcase II/GAA” value is given as 163.6. The IC50 on ER α-glucosidase II came to 180 ± 19 µM.

Usually IC50 stands for the midpoint of a concentration-inhibition curve.
